Legend:
[1] = target: T1, Aurora kinase A (Mus musculus, UniProt P97477); experiment: Aurora Kinase Inhibition Assay; details: pH 7.5; 22 °C
T1 sequence (P97477 whole entry): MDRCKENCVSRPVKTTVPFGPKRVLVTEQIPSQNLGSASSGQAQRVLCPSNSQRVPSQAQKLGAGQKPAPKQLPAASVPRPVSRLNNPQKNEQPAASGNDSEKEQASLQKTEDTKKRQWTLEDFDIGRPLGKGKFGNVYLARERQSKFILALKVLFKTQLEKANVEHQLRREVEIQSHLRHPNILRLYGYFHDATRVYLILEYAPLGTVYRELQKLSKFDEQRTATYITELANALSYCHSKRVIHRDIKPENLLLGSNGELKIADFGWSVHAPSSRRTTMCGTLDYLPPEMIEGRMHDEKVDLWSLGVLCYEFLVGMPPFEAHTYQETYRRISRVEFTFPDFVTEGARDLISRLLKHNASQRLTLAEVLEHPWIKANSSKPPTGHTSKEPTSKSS
Procedure: The compounds were tested for their ability to inhibit the phosphorylation of serine 10 of histone-H3 by purified recombinant murine Aurora-A enzyme. The phosphorylation of serine 10 was detected colorimetrically using Phospho-Histone H3 (Ser10) (6G3) Mouse mAb (9706, Cell Signaling Technologies, Danvers, MA).

[2] = target: Receptor-type tyrosine-protein kinase FLT3 (Homo sapiens, UniProt P36888); experiment: FLT3 Inhibition Assay
Sequence of Receptor-type tyrosine-protein kinase FLT3 (P36888 whole entry, looked up): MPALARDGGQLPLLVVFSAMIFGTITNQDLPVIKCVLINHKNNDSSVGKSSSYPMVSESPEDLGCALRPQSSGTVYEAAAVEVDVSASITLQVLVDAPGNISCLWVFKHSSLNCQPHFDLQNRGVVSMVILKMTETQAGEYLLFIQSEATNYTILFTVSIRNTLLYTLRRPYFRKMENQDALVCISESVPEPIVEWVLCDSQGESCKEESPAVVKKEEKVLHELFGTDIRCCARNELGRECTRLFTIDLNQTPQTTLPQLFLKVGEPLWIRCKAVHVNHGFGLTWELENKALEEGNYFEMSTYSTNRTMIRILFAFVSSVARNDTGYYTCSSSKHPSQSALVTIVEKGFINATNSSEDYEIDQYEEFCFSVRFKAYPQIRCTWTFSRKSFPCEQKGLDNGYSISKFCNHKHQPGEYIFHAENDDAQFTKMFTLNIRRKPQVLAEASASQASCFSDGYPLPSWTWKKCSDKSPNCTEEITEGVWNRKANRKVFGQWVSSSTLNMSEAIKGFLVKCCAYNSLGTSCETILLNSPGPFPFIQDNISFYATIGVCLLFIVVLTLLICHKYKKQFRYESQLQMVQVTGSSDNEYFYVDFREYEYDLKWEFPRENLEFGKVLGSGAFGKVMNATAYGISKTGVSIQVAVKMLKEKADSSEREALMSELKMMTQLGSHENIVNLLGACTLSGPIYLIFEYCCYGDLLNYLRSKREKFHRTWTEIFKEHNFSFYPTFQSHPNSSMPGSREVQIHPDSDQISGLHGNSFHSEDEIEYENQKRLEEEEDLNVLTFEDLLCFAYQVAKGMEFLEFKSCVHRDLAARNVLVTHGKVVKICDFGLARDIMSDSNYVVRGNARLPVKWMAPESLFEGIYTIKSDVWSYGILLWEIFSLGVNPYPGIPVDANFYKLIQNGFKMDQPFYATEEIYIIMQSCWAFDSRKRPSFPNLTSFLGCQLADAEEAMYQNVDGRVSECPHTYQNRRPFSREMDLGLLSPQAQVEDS
Procedure: The compounds were tested for their ability to inhibit the phosphorylation of poly(Glu:Tyr) by purified recombinant human FLT3. The extent of phosphorylation was quantitated by a fluorescent polarization competition immunoassay (Ex: 485 nm, Em:530 nm) using an anti-phosphotyrosine antibody and a phosphotyrosine tracer (Green Tyrosine Kinase Assay Kit, PanVera P2837).

Row | IC50 [1] | IC50 [2] | SMILES
1 | 0.039 µM |  | CN1CCN(c2ccc(Nc3ncc4ccn(C5CC6CCC5C6)c4n3)cc2)CC1 (stereo not given) [7-{bicyclo[2.2.1]heptan-2-yl}-N-[4-(4-methylpiperazin-1-yl)phenyl]-7H-pyrrolo[2,3-d]pyrimidin-2-amine]
2 | 0.013 µM |  | CN1CCN(c2ccc(Nc3ncc4ccn(-c5cccnc5)c4n3)cc2)CC1 [N-[4-(4-methylpiperazin-1-yl)phenyl]-7-(pyridin-3-yl)-7H-pyrrolo[2,3-d]pyrimidin-2-amine]
3 | 0.006 µM |  | COc1cccc(-n2ccc3cnc(Nc4cccc(N5CCN(C)CC5)c4)nc32)c1 [7-(3-methoxyphenyl)-N-[3-(4-methylpiperazin-1-yl)phenyl]-7H-pyrrolo[2,3-d]pyrimidin-2-amine]
4 | 0.012 µM |  | CN1CCN(c2cccc(Nc3ncc4ccn(-c5cccnc5)c4n3)c2)CC1 [N-[3-(4-methylpiperazin-1-yl)phenyl]-7-(pyridin-3-yl)-7H-pyrrolo[2,3-d]pyrimidin-2-amine]
5 | 0.012 µM |  | O=S1(=O)CCN(c2ccc(Nc3ncc4ccn(C5CCCCC5)c4n3)cc2)CC1 [4-[4-({7-cyclohexyl-7H-pyrrolo[2,3-d]pyrimidin-2-yl}amino)phenyl]-1,4-thiomorpholine-1,1-dione]
6 | 0.003 µM |  | CN1CCN(c2cccc(Nc3ncc4ccn(-c5ccccc5)c4n3)c2)CC1 [N-[3-(4-methylpiperazin-1-yl)phenyl]-7-phenyl-7H-pyrrolo[2,3-d]pyrimidin-2-amine]
7 | 0.029 µM |  | CC(C)c1cccc(-n2ccc3cnc(Nc4cccc(N5CCN(C)CC5)c4)nc32)c1 [N-[3-(4-methylpiperazin-1-yl)phenyl]-7-[3-(propan-2-yl)phenyl]-7H-pyrrolo[2,3-d]pyrimidin-2-amine]
8 | 0.018 µM |  | CN1CCN(c2ccc(Nc3ncc4ccn(C5Cc6ccccc6C5)c4n3)cc2)CC1 [7-(2,3-dihydro-1H-inden-2-yl)-N-[4-(4-methylpiperazin-1-yl)phenyl]-7H-pyrrolo[2,3-d]pyrimidin-2-amine]
9 | 0.039 µM |  | COc1cc2c(Nc3ccc(NC(=O)c4ccccc4)cc3)ncnc2cc1OCCCN1CCOCC1 [N-[4-({6-methoxy-7-[3-(morpholin-4-yl)propoxy]quinazolin-4-yl}amino)phenyl]benzamide]
10 | 0.049 µM |  | c1cc(N2CCOCC2)ccc1Nc1ncc2ccn(C3CCCCC3)c2n1 [7-cyclohexyl-N-[4-(morpholin-4-yl)phenyl]-7H-pyrrolo[2,3-d]pyrimidin-2-amine]
11 | 0.011 µM |  | CN1CCN(c2cccc(Nc3ncc4ccn(-c5cccc(C(N)=O)c5)c4n3)c2)CC1 [3-(2-{[3-(4-methylpiperazin-1-yl)phenyl]amino}-7H-pyrrolo[2,3-d]pyrimidin-7-yl)benzamide]
12 | 0.006 µM |  | COCCN1CCN(Nc2ncc3ccn(C4CCCCC4)c3n2)CC1 [N-{7-cyclohexyl-7H-pyrrolo[2,3-d]pyrimidin-2-yl}-4-(2-methoxyethyl)piperazin-1-amine]
13 | 0.0008 µM | < 0.001 µM | O=S1(=O)CCN(c2ccc(Nc3ncc4ccn(-c5ccccn5)c4n3)cc2)CC1 [4-(4-{[7-(pyridin-2-yl)-7H-pyrrolo[2,3-d]pyrimidin-2-yl]amino}phenyl)-1,4-thiomorpholine-1,1-dione]
14 | 0.82 µM |  | CN1CCN(c2cccc(Nc3ncc4ccn(-c5cccc(C(=O)NC6CCCC6)c5)c4n3)c2)CC1 [N-cyclopentyl-3-(2-{[3-(4-methylpiperazin-1-yl)phenyl]amino}-7H-pyrrolo[2,3-d]pyrimidin-7-yl)benzamide]
15 | 0.013 µM |  | CN1CCN(c2cccc(Nc3ncc4ccn(-c5cccc(C#N)c5)c4n3)c2)CC1 [3-(2-{[3-(4-methylpiperazin-1-yl)phenyl]amino}-7H-pyrrolo[2,3-d]pyrimidin-7-yl)benzonitrile]
16 | 0.01 µM |  | CN1CCN(c2cccc(Nc3ncc4ccn(-c5cccc(S(C)(=O)=O)c5)c4n3)c2)CC1 [7-(3-methanesulfonylphenyl)-N-[3-(4-methylpiperazin-1-yl)phenyl]-7H-pyrrolo[2,3-d]pyrimidin-2-amine]
17 | 0.018 µM |  | COc1cccc(-n2ccc3cnc(Nc4ccc(N5CCN(C)CC5)cc4)nc32)c1 [7-(3-methoxyphenyl)-N-[4-(4-methylpiperazin-1-yl)phenyl]-7H-pyrrolo[2,3-d]pyrimidin-2-amine]
18 | 0.005 µM |  | CN1CCN(c2cccc(Nc3ncc4ccn(-c5ccccn5)c4n3)c2)CC1 [N-[3-(4-methylpiperazin-1-yl)phenyl]-7-(pyridin-2-yl)-7H-pyrrolo[2,3-d]pyrimidin-2-amine]
19 | 0.009 µM |  | CN1CCN(c2ccc(Nc3ncc4ccn(-c5cccc(S(C)(=O)=O)c5)c4n3)cc2)CC1 [7-(3-methanesulfonylphenyl)-N-[4-(4-methylpiperazin-1-yl)phenyl]-7H-pyrrolo[2,3-d]pyrimidin-2-amine]

Source: BindingDB's records for doi:10.1016/j.bmcl.2006.08.080 (Johnson & Johnson Pharmaceutical, 2006)
